Data on 16 compounds can be found in PubChem BioAssay (NCI).

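Where inhibition never reached the appropriate level, the endpoint shown equals the highest concentration tested. Otherwise, values were interpolated linearly from a five-concentration, 48-hour dose response in 96-well plates. TGI is the concentration that stops growth completely.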 Where a SMILES comes first, the peptide text is derived from it. [ ]: non-standard residue; d: D form. The star is where a group is joined. ξ: configuration not given here. ξF = NC(Cc1ccccc1)C(=O)O; Cbz = O=C(OCc1ccccc1)*

Test systems include A549 NSCLC; EKVX NSCLC; SK-OV-3 ovarian; CCRF-CEM leukemia; KM12 colon; MDA-MB-435; K-562 leukemia; NCI-H226 lung.
Common to all, as to assay: NCI-60 cell line screen, 48 h

On to `COC(=O)c1cc(S(=O)(=O)NC2=NCC(C)NN2)c(S)cc1Cl` (stereo unspecified), for which the TGI with A549 NSCLC, in the assay on EKVX NSCLC, with SK-OV-3 ovarian, with CCRF-CEM leukemia, with KM12 colon and in the assay with MDA-MB-435 was > 100 µM in each case. The TGI in the assay with K-562 leukemia was > 100 µM.

For the compound `NNc1nnc(CCCCCCCCc2nnc(NN)n2N)n1N`, the TGI with A549 NSCLC, in the assay on EKVX NSCLC, with NCI-H226 lung, with SK-OV-3 ovarian, in the assay on CCRF-CEM leukemia and with KM12 colon was > 100 µM each time. For the same compound, the TGI in the assay on MDA-MB-435 and in the assay with K-562 leukemia was > 100 µM throughout.

In the case of `CC(=O)c1ccc(Nc2c3c(nc4ccccc24)CCCC3)cc1`, the TGI in the assay on A549 NSCLC is > 95.5 µM; with EKVX NSCLC, > 84.6 µM; with NCI-H226 lung, > 100 µM; in the assay with SK-OV-3 ovarian, > 70.8 µM; in the assay on CCRF-CEM leukemia it was > 100 µM; in the assay on KM12 colon it was > 36 µM. In addition, the values for the TGI in the assay with MDA-MB-435 and with K-562 leukemia were 13.8 µM and > 100 µM, respectively.

For `CCOc1cnc(C(O)(c2ccccc2)c2ccccc2)o1`, the TGI with A549 NSCLC, in the assay with EKVX NSCLC, in the assay on NCI-H226 lung, in the assay on SK-OV-3 ovarian, in the assay with CCRF-CEM leukemia and in the assay with KM12 colon was > 100 µM each time. Also, the TGI with MDA-MB-435 and with K-562 leukemia was > 100 µM each time.

Consider `O=c1[nH]c(N/N=C\C(O)C(O)C(O)C(O)CO)nc2ccccc12` (stereo unspecified), for which the TGI in the assay on A549 NSCLC, in the assay on EKVX NSCLC, in the assay on NCI-H226 lung, in the assay with SK-OV-3 ovarian, in the assay with CCRF-CEM leukemia and in the assay on KM12 colon was > 100 µM throughout. The TGI in the assay on MDA-MB-435 and in the assay on K-562 leukemia was > 100 µM each time.

On to `COC(=O)[C@H](Cc1ccccc1)NC(=O)c1ccc(CNC(=O)/C=C/c2csc(-c3ccccc3)n2)cc1`, for which the TGI with A549 NSCLC is > 72.2 µM; with EKVX NSCLC, > 88.5 µM; in the assay on NCI-H226 lung it was > 100 µM; with SK-OV-3 ovarian, > 65.5 µM; with CCRF-CEM leukemia, > 100 µM; in the assay on KM12 colon it was > 100 µM. The TGI in the assay with MDA-MB-435 was > 36.7 µM; in the assay with K-562 leukemia it was > 31.9 µM.

Consider `N#Cc1ccccc1OCCOc1ccccc1C#N`, for which the TGI in the assay with A549 NSCLC, with EKVX NSCLC, with NCI-H226 lung, in the assay with SK-OV-3 ovarian, in the assay with CCRF-CEM leukemia and in the assay on KM12 colon was > 100 µM throughout. In addition, the TGI in the assay on MDA-MB-435 and with K-562 leukemia was > 100 µM each time.

Consider `O=c1cc(Nc2cccc(O)c2)[nH]c(=O)[nH]1`, for which the TGI in the assay on A549 NSCLC, with EKVX NSCLC, in the assay on NCI-H226 lung, with SK-OV-3 ovarian, in the assay with CCRF-CEM leukemia and in the assay with KM12 colon was > 100 µM throughout. Moreover, the TGI in the assay with MDA-MB-435 and in the assay on K-562 leukemia was > 100 µM in each case.

As to `COc1ccc2nc3c(c(N)c2c1)C1CCC3C1(C)C` (stereo unspecified), the TGI in the assay on A549 NSCLC is > 100 µM; with EKVX NSCLC it was > 100 µM; in the assay on NCI-H226 lung, 72 µM; with SK-OV-3 ovarian, > 100 µM; with CCRF-CEM leukemia, 98.4 µM; in the assay with KM12 colon, > 100 µM. In addition, the TGI with MDA-MB-435 and in the assay with K-562 leukemia was > 100 µM each time.

`Cn1c2ccccc2c(=O)c2c(O)cc3c(c21)C1OCC(C)(O)C1O3` (stereo unspecified): the TGI was > 100 µM in the assay with A549 NSCLC; > 100 µM in the assay with EKVX NSCLC; 63.5 µM in the assay with NCI-H226 lung; > 100 µM with SK-OV-3 ovarian; > 100 µM with CCRF-CEM leukemia; > 100 µM with MDA-MB-435. For the same compound, in the assay on K-562 leukemia, the TGI is > 100 µM.

Turning to `CCOC(=O)CNC(=O)C(Cc1ccccc1)NC(=O)OCc1ccccc1` (stereo unspecified) (Cbz-[ξF]-Gly-OEt), the TGI in the assay with A549 NSCLC, with EKVX NSCLC, with NCI-H226 lung, with SK-OV-3 ovarian, with CCRF-CEM leukemia and with KM12 colon was > 100 µM in each case. Further, the TGI in the assay with MDA-MB-435 and in the assay with K-562 leukemia was > 100 µM in each case.

In the case of `C=CCON(C(=O)OC(C)(C)C)C(C)(C)C`, the TGI in the assay on A549 NSCLC, with EKVX NSCLC, in the assay with NCI-H226 lung, in the assay on SK-OV-3 ovarian, with CCRF-CEM leukemia and in the assay with KM12 colon was > 100 µM each time. The TGI in the assay on MDA-MB-435 and with K-562 leukemia was > 100 µM in each case.

For `Cc1c(C)c(S(=O)(=O)N(CCCCN)OCCCN)c(C)c2c1OC(C)(C)CC2`, the TGI was 56.3 µM with A549 NSCLC; 31.9 µM in the assay on EKVX NSCLC; 30.1 µM in the assay on NCI-H226 lung; 33.8 µM in the assay on SK-OV-3 ovarian; 98.3 µM in the assay with CCRF-CEM leukemia; 42.8 µM in the assay on KM12 colon. The TGI is 45.1 µM in the assay with MDA-MB-435 and > 100 µM in the assay on K-562 leukemia.

Take `COc1ccccc1C1c2cc3c(cc2OC2(OC)COC(=O)C12)OCO3` (stereo unspecified): the TGI in the assay with A549 NSCLC was > 100 µM; in the assay with EKVX NSCLC it was > 82.3 µM; with NCI-H226 lung, > 87.5 µM; with SK-OV-3 ovarian it was 70.1 µM; in the assay with CCRF-CEM leukemia, 75.6 µM; with KM12 colon it was 45.5 µM. The TGI in the assay with MDA-MB-435 was 5.74 µM; with K-562 leukemia, > 45.6 µM.

Turning to `Cc1cc(C)c(-c2no/c(=N\S(=O)(=O)c3ccc(Cl)cc3)o2)c(C)c1`, the TGI in the assay on A549 NSCLC, in the assay with EKVX NSCLC, with NCI-H226 lung, in the assay with SK-OV-3 ovarian, in the assay with CCRF-CEM leukemia and in the assay on KM12 colon was > 100 µM throughout. Further, the TGI in the assay on MDA-MB-435 and in the assay with K-562 leukemia was > 100 µM each time.

For the compound `COC(=O)[C@@H]1CO[C@H](C(C)(C)C)N1C(=O)N1C=CC(=O)C[C@H]1C`, the TGI in the assay with A549 NSCLC, in the assay with EKVX NSCLC, in the assay with NCI-H226 lung, in the assay with SK-OV-3 ovarian, with CCRF-CEM leukemia and in the assay on KM12 colon was > 100 µM throughout. The TGI with MDA-MB-435 and in the assay on K-562 leukemia was > 100 µM each time.
